Source: patent publication US10576147B2, “Muramyl peptide derivative compound, synthesis and uses thereof” (BHARAT BIOTECH INTERNATIONAL LIMITED, priority 2015, dated 2020)

How the values were obtained:
[1] = test system: Peripheral blood mononuclear cells (PBMCs); assay: In-vitro pyrogen test (IL-1β, IL-6, TNF-α by ELISA); format: cell-based
Method: Generally, pyrogenicity of any molecule can be measured by the over production of pro-inflammatory cytokines IL-1β, IL-6, and TNFα, following an activation of monocytes in-vitro, which inturn, could be an indicative of increased reactogenicity in-vivo.
Frozen Peripheral blood mononuclear cells (PBMCs) were revived and plated (0.5×10^6 cells/ml, 100 μl) in 96 well round bottom cell culture plate. Cells were supplemented with RPMI 1640 medium (Gibco Laboratories, Grand Island, N.Y.) containing fetal bovine serum (10%), glutamine (2 mM), and pencillin-streptomycin. Cells further stimulated with LPS (10 ng/ml) or endotoxin (1 EU/ml, 0.5 EU/ml, 0.25 EU/ml, 0.125 EU/ml) or MDP-MN (10 or 100 μg/ml). Cells stimulated with LPS or endotoxin was incubated for 4 hrs where as cells stimulated with MDP derivatives of the present invention kept for incubation in humidified CO2 chamber at 37° C. for 24 hrs. After stimulation, cell culture supernatant was collected and cytokines (such as IL-1β, IL-6 or TNF-α) were measured by ELISA. Concentrations each cytokine produced by PBMCs in the presence of reference standard endotoxin at 0.5 EU/ml was measured in triplicates. Threshold levels were calculated for each cytokine, using the cytokine levels produced by the reference standard endotoxin at 0.5 EU/ml (Marina et al., Vaccine 30 (2012) 4859-4865).
To determine Interleukin 1β, Enzyme Linked Immunosorbent Assay (ELISA) was performed according to the instruction manual (ebioscience, cat#88-7010). Briefly, capture antibody (cat#14-7018-67, eBioscience) was first diluted 1:250 using coating buffer and added 100 μL to each well in 96-well microplate. Plates were incubated overnight at 2-8° C. Coated plates were then washed with wash buffer (PBST). After washing, these plates were blocked using 1× assay diluent for 1 hr at room temperature followed by washing with PBST. A series of 2 fold dilutions were made from top standard ranging from 4 to 500 pg/mL, to make the standard curve. Similarly, 4 fold dilutions (1:4, 1:16 & 1:64) of cell supernatant obtained from PBMCs stimulation with MDP-MN were prepared. Aliquot (100 μL) of diluted standards or cell supernatants were added to well in duplicates and the plate was incubated at room temperature for 2 hrs. After washing the plate, 100 μL/well of detection antibody (cat#33-7016-67) diluted in 1× Assay diluent was added and incubated at room temperature for 1 hr. Later, 100 μL/well of Avidin-HRP* diluted in 1× Assay diluent was added and incubated at room temperature for 30 minutes. Finally, after washes, 100 μL of substrate solution was added to each well and incubated at RT for 15 minutes. Reaction was stopped by the addition of 50 μL of 2N H2SO4 to each well and the plate was read at 450 nm. […]

splenocytes = assay: Splenocyte proliferation (MTT); format: cell-based, mice; settings: mouse splenocytes, LPS and Con-A, 48 h
Method: Spleens were isolated from mice and were processed to single cell suspension. 96 well flat bottom Micro titer plates were seeded with 1×10^5 cells/well with RPMI1640 media. Cells were treated with compounds, OVA, Con A (2 μg/mL) and LPS (10 μg/mL) or medium giving a final volume of […]. Plates were incubated at 37° C. with 5% CO2 in an incubator. After 48 h of incubation […] of Triazolyl blue Tetrazolium Bromide (MTT) solution was added to each well, incubated for next 4 h. Untransformed MTT was removed from each well by aspirating the supernatant ([…]) and replaced with DMSO. The absorbance was read at 570 nm after 15 min.
Immunostimulating substances act through specific (antigen-dependent) T lymphocytes, B lymphocytes, and dendritic cells and also through non-specific mechanisms of action (antigen-independent) that involves granulocytes, macrophages, and NK cells. Being a secondary lymphoid organ, spleen contains a heterogeneous population of lymphocytes to examine the immunostimulant activity. However, proliferations of immune cells like T and B cells are the benchmark for immune potentiation. Cells were treated with or without OVA or in combination with MDP and MDP-MN. Type of immune response in all treated groups was measured with LPS and Con-A splenocyte proliferation assays depicted in FIG. 3. […] This is essential for B cell expansion.

BALB/c mice = assay: TH1:TH2 index from HBsAg specific IgG isotypes; format: in vivo
Text: It is known that, IgG subclasses produced after the immunization against given antigen, primarily determines the function of the antibody or indirectly measures the relative contribution of TH1 versus TH2 type cytokine induction. More specifically, production of IgG1 antibodies induces TH2 type cytokines, whereas, production of IgG2a & IgG3 antibodies induces TH1 type cytokines. […] In this context, in the present invention, we determined the levels of IgG isotypes (IgG1, IgG2a & IgG3), raised against HBsAg in the presence or absence of MDP-MN (at 10 & 50 μg/mouse) and calculated TH1: TH2 index then calculated as ([IgG2a+IgG3]/2)/(IgG1). Details of assay protocol as described below as in example 3.1.3. According to such calculation, an index value <1 stands for a TH2 polarization; an index value >1 stands for a TH1 polarization.
Analysis of antigen specific IgG antibody subclasses (isotypes namely IgG1 or IgG2a or IgG3) was performed as mentioned in example 3.1.2, except at one step, where goat anti-mouse IgG1 or IgG2a or IgG3 HRP was used at a dilution of 1:5000 (in place of goat anti-mouse IgG) TH1:TH2 index obtained at 10 & 50 μg/mouse of MDP-MN is as shown in FIG. 5c.

Question: Which results are given for C[C@H](NC(=O)[C@@H](C)O[C@H]1[C@H](O)[C@@H](CO)OC(O)[C@@H]1NC(=O)[C@H](O)CO)C(=O)N[C@H](CCC(=O)O)C(N)=O (stereo partly drawn) [MDP-MN, (4R)-5-amino-4-((2S)-2-((2R)-2-(((3R,4R,5S,6R)-3-((2,3-dihydroxypropanamido))-2,5-dihydroxy-6-(hydroxymethyl)tetrahydro-2H-pyran-4-yl)oxy)propanamido)propanamido)-5-oxopentanoic acid]?
Answer: IL-1β level vs threshold ([1]; MDP-MN at both 10 & 100 μg/ml, 24 hrs, (endotoxin 0.5 EU/ml)): within the threshold value; TNF-α level vs threshold ([1]; MDP-MN at both 10 & 100 μg/ml, 24 hrs, threshold 753 μg/ml): within the threshold value; IL-6 level vs threshold ([1]; MDP-MN at both 10 & 100 μg/ml, 24 hrs, threshold 3110 μg/ml): within the threshold value; pyrogenicity ([1]; in-vitro pyrogen test): doesn't cause any pyrogenicity; splenocyte proliferation (splenocytes): inducing the LPS mediated splenocyte proliferation; TH1:TH2 index ([IgG2a+IgG3]/2)/(IgG1) (BALB/c mice; HBsAg in the presence of MDP-MN (10 & 50 μg/mouse)): 2.5; TH1 type cytokines induction (BALB/c mice; mice vaccinated with Hepatitis B surface antigen in presence of MDP-MN): induced TH1 type cytokines
